According to US20240174681A1, “SALT AND CRYSTALLINE FORMS OF FGFR4 INHIBITOR AND USES THEREOF” (BETTA PHARMACEUTICALS CO., LTD, priority 2020, published 2024):
Entries after “also recorded” stand apart in the source; their conditions may differ. Where two headings read alike, the source gives them in different places.

Legend:
[1] = Hygroscopicity determination by dynamic vapor sorption (DVS); assay type: physicochemical; details: for Weight Gain for Vapor Absorption: DVS, 0% RH to 80% RH; for hygroscopicity (in words): under the test conditions
Experimental: The hygroscopicity of samples (which are multiple crystal forms shown in Table 14) was determined by a dynamic vapor sorption (DVS) meter. The samples were detected for changes of weight gains due to vapor absorption within the range of 0% RH (relative humidity) to 80% RH.

[2] = Stability determination of crystal forms (HPLC); assay type: physicochemical; details: for stability (in words): HPLC detection results
Experimental: Samples and experimental preparation: The amorphous form of the compound represented by Formula I and the crystal form A, maleate crystal form 1, maleate crystal form 2, phosphate crystal form 1 and adipate crystal form 1 of the compound represented by Formula I in appropriate amounts were tested for stability. Samples were taken at different time points separately for HPLC. The packages were polyester/aluminum/polyamide/polyethylene pharmaceutical composite films and bags.

[3] = Pharmacokinetic test of crystal forms in SD rats, oral; assay type: in vivo; details: 50 mg/kg, suspension in 0.5% CMC-Na
Experimental: Drug preparation: A maleate crystal form 1, a phosphate crystal form 1 and an adipate crystal form 1 were weighed separately, and each crystal form was prepared in a 0.5% CMC-Na solution into a to-be-tested suspension, where the final concentration of each compound was 5 mg/mL.
Test animals: SD rats were randomly divided into three groups, each group including three male rats, and the three groups were called a maleate group, a phosphate group and an adipate group, separately.
Administration and sample collection: The SD rats in each group were subjected to oral administration at a dosage of 50 mg/kg. Blood collection time: Blood samples were collected in EDTA-K pre-anticoagulation tubes after 0 h (before administration), 0.25 h, 0.5 h, 1 h, 2 hrs, 4 hrs, 7 hrs and 24 hrs. The plasma in each sample was isolated by being centrifuged at 4000 rpm for 10 min at 4° C. Plasma samples were collected and stored at −80° C. for analytical use. The concentration of a to-be-tested compound in plasma samples was analyzed by AB4000 API LC/MS in combination with HPLC, and the pharmacokinetic parameter of the to-be-tested compound was obtained by analyzing the plasma concentration-time data of each animal.

[4] = tested on: human liver cancer cells Hep3B; assay: Cell proliferation assay (CellTiter-Glo); assay type: cell-based; details: 96 hrs incubation, CTG, read-out: IC50 of the Compound on Hep3B Cells
Experimental: The effect of the compound of the present disclosure on the proliferation of human liver cancer cells Hep3B cells was evaluated by an in vitro cell assay. CELL TITER-GLO (CTG) luminescence was used as a detection method in the assay, which can detect the number of living cells by quantitatively determining ATP. Since ATP participates in a variety of enzymatic reactions in organisms, the ATP is an indicator of the metabolism of living cells and its content directly reflects the number of cells and the cell state of cells. In the assay, CellTiter-Glo™ reagent was added to a cell culture medium to measure a luminescence value, the luminescence value is directly proportional to the amount of ATP, and ATP is positively correlated to the number of living cells, so cell viability can be inspected by detecting the ATP content.
A bottle of Hep3B cells in a logarithmic growth phase was taken, the cells were counted after digestion and resuspension and then inoculated into a 96-well plate after the cell density was adjusted, each well inoculated with 180 μL (1500 cells/well), and the plate was incubated for 24 hrs in a 37° C., 5% CO2 incubator. • (2) Administration to cells […]
An inhibition rate was calculated according to the luminescence value. […]

[5] = tested on: human liver cancer cells Hep3B xenograft; assay: Hep3B xenograft tumor model; assay type: in vivo
Experimental: BALB/c nu/nu female mice were inoculated with 5×10^6 human liver cancer cells Hep3B subcutaneously in the right anterior scapula, where a volume ratio of a cell suspension to matrigel was 1:1 (0.2/mL/mouse). When an average tumor volume was 158 mm^3, the mice were randomly grouped according to a tumor size. The treatment group was administered with a solution of a to-be-tested compound prepared with an appropriate solvent, and the solvent control group was administered with a blank solvent. During treatment, the tumor volume was measured twice a week, and the tumor weight was determined after a last dose to determine the activity of the compound. A tumor growth inhibition (TGI) rate (%) was calculated by comparing the tumor volumes and weights of the treatment group and the solvent control group. Body weight measurement, as the routine determination of toxicity, has the same frequency as tumor volume measurement.

[6] = 40° C./75% RH, packaged, day 12
[7] = 40° C./75% RH, packaged, day 5, listed as Crystal form A of the compound represented by Formula I
[8] = 40° C./75% RH, packaged, day 20
[9] = day 0, listed as Crystal form A of the compound represented by Formula I

SMILES: C=CC(=O)N[C@H]1CCOC[C@H]1Nc1ncc2c(n1)-c1cc(C)cnc1N(c1c(Cl)c(OC)cc(OC)c1Cl)C2 [Amorphous form of the compound represented by Formula I]
- Weight Gain for Vapor Absorption [1]: 6.53%
- hygroscopicity (in words) [1]: hygroscopic
- API Content ([2]; 25° C./75% RH, open, day 10): 97.21%
- Changed Maximum Single Impurity ([2]; 25° C./75% RH, open, day 10): 1.26%
- API Content ([2]; 40° C., open, day 10): 97.45%
- Changed Maximum Single Impurity ([2]; 40° C., open, day 10): 1.15%
- stability (in words) [2]: poor stability
- API Content ([2]; day 0): 98.30%
- Changed Maximum Single Impurity ([2]; day 0): 0.41%

SMILES: C=CC(=O)NC1CCOCC1Nc1ncc2c(n1)-c1cc(C)cnc1N(c1c(Cl)c(OC)cc(OC)c1Cl)C2.O=C(O)C=CC(=O)O (centres unmarked) [Maleate crystal form 2]
- Weight Gain for Vapor Absorption [1]: 6.64%
- hygroscopicity (in words) [1]: hygroscopic
- API Content ([2]; 25° C./75% RH, open, day 10): 98.61%
- Changed Maximum Single Impurity ([2]; 25° C./75% RH, open, day 10): 1.1%
- API Content ([2]; 40° C., open, day 10): 99.32%
- Changed Maximum Single Impurity ([2]; 40° C., open, day 10): 0.48%
- stability (in words) [2]: poor stability
- API Content ([2]; day 0): 99.63%
- Changed Maximum Single Impurity ([2]; day 0): 0.29%

SMILES: C=CC(=O)NC1CCOCC1Nc1ncc2c(n1)-c1cc(C)cnc1N(c1c(Cl)c(OC)cc(OC)c1Cl)C2.O=C(O)C=CC(=O)O (centres unmarked) [Maleate crystal form 1]
- hygroscopicity (in words) [1]: low hygroscopicity
- API Content ([2]; 40° C./75% RH, packaged, day 5): 99.48%
- Changed Maximum Single Impurity ([2]; 40° C./75% RH, packaged, day 5): 0.26%
- API Content [2, 6]: 99.34%
- Changed Maximum Single Impurity [2, 6]: 0.28%
- stability (in words) [2]: relatively good stability
- API Content ([2]; day 0): 99.62%
- Changed Maximum Single Impurity ([2]; day 0): 0.2%
- AUClast [3]: 8355 ng·h/mL
- Cmax [3]: 2713 ng/mL

SMILES: C=CC(=O)N[C@H]1CCOC[C@H]1Nc1ncc2c(n1)-c1cc(C)cnc1N(c1c(Cl)c(OC)cc(OC)c1Cl)C2 [Phosphate crystal form 1]
- Weight Gain for Vapor Absorption [1]: 0.19%
- hygroscopicity (in words) [1]: non-hygroscopic; also recorded: low hygroscopicity
- API Content ([2]; 40° C./75% RH, packaged, day 5): 99.39%
- Changed Maximum Single Impurity ([2]; 40° C./75% RH, packaged, day 5): 0.15%
- API Content [2, 6]: 99.56%
- Changed Maximum Single Impurity [2, 6]: 0.11%
- stability (in words) [2]: relatively good stability
- API Content ([2]; day 0): 99.32%
- Changed Maximum Single Impurity ([2]; day 0): 0.15%
- AUC(0-t) ([3]; male, rat, plasma): 6890 ng·h/mL
- Cmax ([3]; male, rat, plasma, read-out: Cmax): 1140 ng/mL

SMILES: C=CC(=O)NC1CCOCC1Nc1ncc2c(n1)-c1cc(C)cnc1N(c1c(Cl)c(OC)cc(OC)c1Cl)C2.O=C(O)C(O)C(O)C(=O)O [L-tartrate crystal form 1]
- Weight Gain for Vapor Absorption [1]: 0.07%
- hygroscopicity (in words) [1]: non-hygroscopic

SMILES: C=CC(=O)N[C@H]1CCOC[C@H]1Nc1ncc2c(n1)-c1cc(C)cnc1N(c1c(Cl)c(OC)cc(OC)c1Cl)C2 [Crystal form A]
- Weight Gain for Vapor Absorption [1]: 0.03%
- hygroscopicity (in words) [1]: non-hygroscopic; also recorded: low hygroscopicity
- API Content ([2]; 25° C./92.5% RH, open, day 20): 99.32%
- Changed Maximum Single Impurity ([2]; 25° C./92.5% RH, open, day 20): 0.17%
- API Content [2, 7]: 99.25%
- Changed Maximum Single Impurity [2, 7]: 0.19%
- API Content [2, 8]: 99.47%
- Changed Maximum Single Impurity [2, 8]: 0.17%
- API Content ([2]; 60° C., open, day 12): 99.14%
- Changed Maximum Single Impurity ([2]; 60° C., open, day 12): 0.24%
- stability (in words) [2]: relatively good stability
- API Content [2, 9]: 99.16%
- Changed Maximum Single Impurity [2, 9]: 0.19%

SMILES: C=CC(=O)N[C@H]1CCOC[C@H]1Nc1ncc2c(n1)-c1cc(C)cnc1N(c1c(Cl)c(OC)cc(OC)c1Cl)C2 [Compound represented by Formula I, N-((3S,4S)-3-((6-(2,6-dichloro-3,5-dimethoxyphenyl)-9-methyl-5,6-dihydropyrimido[5,4-c][1,8]naphthyridin-2-yl)amino)tetrahydro-2H-pyran-4-yl)acrylamide]
- IC50 [4]: 5.1 nM
- inhibition rate on the tumor volume growth of Hep3B ([5]; 50 mg/kg BID×14): 73.02%
- inhibition rate on the tumor weight growth of HepB ([5]; 50 mg/kg BID×14): 84.76%
- inhibition rate on the tumor volume growth of Hep3B ([5]; 100 mg/kg BID×14): 86.26%
- inhibition rate on the tumor weight growth of HepB ([5]; 100 mg/kg BID×14): 92.27%
- inhibition rate on the tumor volume growth of Hep3B ([5]; 200 mg/kg BID×14): 90.26%
- inhibition rate on the tumor weight growth of HepB ([5]; 200 mg/kg BID×14): 98.15%
- body weight loss (routine determination of toxicity) ([5]; during the entire assay, treatment doses 50-200 mg/kg BID×14): none of the animals administered with the compound represented by Formula I showed an obvious weight loss
